Laboratory results: ChEMBL document CHEMBL1833795, “Discovery of potent, metabolically stable purine CRF-1 antagonists with differentiated binding kinetic profiles” (Bioorg Med Chem Lett, 2011)

Tests used:
[1] = molecular target: T1, Corticotropin-releasing factor receptor 1 (Homo sapiens) (UniProt P34998); details: CHO
T1 sequence (whole entry): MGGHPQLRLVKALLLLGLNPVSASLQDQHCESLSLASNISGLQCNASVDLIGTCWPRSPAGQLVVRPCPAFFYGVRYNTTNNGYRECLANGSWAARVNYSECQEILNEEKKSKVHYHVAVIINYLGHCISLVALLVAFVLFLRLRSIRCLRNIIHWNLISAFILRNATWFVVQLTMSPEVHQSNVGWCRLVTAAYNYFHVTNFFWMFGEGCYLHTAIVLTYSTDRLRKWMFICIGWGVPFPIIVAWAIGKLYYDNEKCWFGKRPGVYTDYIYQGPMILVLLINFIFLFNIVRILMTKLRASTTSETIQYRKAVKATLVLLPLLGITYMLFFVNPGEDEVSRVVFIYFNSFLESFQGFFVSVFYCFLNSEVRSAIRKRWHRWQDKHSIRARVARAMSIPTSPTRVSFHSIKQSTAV
Description: Antagonist activity at recombinant human CRF1 receptor expressed in CHO cells assessed as dissociation half life

[2] = Clearance in rat at 0.1 mg/kg; type: ADME, organism-based; design: dose 0.1 mg/kg; details: in vivo
[3] = molecular target: T2, Corticotropin-releasing factor receptor 1 (Homo sapiens, UniProt P34998); assay: Antagonist activity at recombinant human CRF1 receptor expressed in CHO cells assessed as inhibition of CRF-induced cAMP formation; type: functional, cell-based
T2 sequence (P34998 whole entry): T1 sequence (whole entry)

[4] = Volume of distribution at steady state in rat at 0.1 mg/kg; type: ADME, organism-based; design: dose 0.1 mg/kg; details: in vivo, read-out: Vdss
Liver microsomes [5] = assay: Intrinsic clearance in human liver microsomes assessed per mg of protein; type: ADME, Microsome
[6] = molecular target: T2, Corticotropin-releasing factor receptor 1; assay: Binding affinity to recombinant human CRF1 receptor expressed in CHO cells; type: cell-based
[7] = Half life in rat at 0.1 mg/kg; type: ADME, organism-based; design: dose 0.1 mg/kg; details: in vivo
Liver microsomes [8] = assay: Intrinsic clearance in rat liver microsomes assessed per mg of protein; type: ADME, Microsome
[9] = Oral bioavailability in rat at 8 mg/kg; type: ADME, organism-based; details: in vivo

Structure (SMILES)	T1/2 [1] [h]	clearance [2] [mL/min/kg]	Ki [3] [µM]	Vd [4] [L/kg]	clearance (Liver microsomes [5]) [µL/min/mg]	Kd [6] [µM]	half-life [7] [h]	clearance (Liver microsomes [8]) [µL/min/mg]	bioavailability [9] [%]
CCCN(CCC)c1cc(C)nc2c(-c3cnc(N(C)C)cc3C)c(C)nn12	12.8								
COc1ccc(-n2c(C)nc3c(NC(C4CC4)C4CC4)nc(C)nc32)cc1	0.5	4	0.019	2	< 10	0.012	2.7	20	
CCCN(CCOC)c1nc(C)nc2c1c(C)nn2-c1ccc(OC)cc1C	0.3				172	0.014		23	
COCc1nc2c(NC(C3CC3)C3CC3)nc(C)nc2n1-c1ccc(OC)cc1			0.157						
Cc1nc(NC(C2CC2)C2CC2)c2nc(C)n(-c3ccc(OC(F)F)cc3)c2n1	1	3	0.005	2	15	0.003	11	17	
COc1ccc(-n2c(C3CC(F)(F)C3)nc3c(NC(C4CC4)C4CC4)nc(C)nc32)cc1			0.261						
Cc1nc(NC(C2CC2)C2CC2)c2nc(C)n(-c3ccc(S(C)(=O)=O)cc3)c2n1			0.14		< 9				
Cc1nc(NC(C2CC2)C2CC2)c2nc(C)n(-c3ccc(OC(F)(F)F)cc3)c2n1			0.009		17			27	
COc1ccc(-n2c(C3CCCO3)nc3c(NC(C4CC4)C4CC4)nc(C)nc32)cc1 (racemic)			0.867						
Cc1nc(NC(C2CC2)C2CC2)c2nc(C)n(-c3ccc(OC(F)F)cc3Cl)c2n1	6.2	8	0.000373	4.5	18	0.000373	6.4	51	
COc1ccc(-n2c(CC3CC3)nc3c(NC(C4CC4)C4CC4)nc(C)nc32)cc1			0.308						
CCOc1ccc(-n2c(C)nc3c(NC(C4CC4)C4CC4)nc(C)nc32)cc1			0.02		16			29	
Cc1nc(NC(C2CC2)C2CC2)c2nc(C)n(-c3ccc(Cl)cc3)c2n1			0.011		28			< 8.5	
CCC(CC)Nc1cc(C)nc2c(-c3ccc(OC)cc3C)c(C)nn12	5.5		0.0015			0.000279			
Cc1nc(NC(C2CC2)C2CC2)c2nc(C)n(-c3ccc(OC(F)F)cc3F)c2n1			0.007						
COc1cc(OC(F)F)ccc1-n1c(C)nc2c(NC(C3CC3)C3CC3)nc(C)nc21	10.7	9	0.000291	8.2	19	0.000291	10	38	52
COc1ccc(-n2cnc3c(NC(C4CC4)C4CC4)nc(C)nc32)c(C)c1			0.047		21			48	
COc1ccc(-n2ncc3c(NC(C4CC4)C4CC4)nc(C)nc32)c(C)c1			0.032		< 11			25	
COc1ccc(-n2c(CC(C)C)nc3c(NC(C4CC4)C4CC4)nc(C)nc32)cc1			0.607						
Cc1nc(NC(C2CC2)C2CC2)c2nc(C)n(-c3ccc(C#N)cc3)c2n1			0.062		16			22	
COc1ccc(-n2c(C)nc3c(NC(C4CC4)C4CC4)nc(C)nc32)c(Cl)c1			0.012						
Cc1nc(NC(C2CC2)C2CC2)c2nc(C)n(-c3ccc(F)cc3)c2n1			0.091		15			< 8.5	
COc1ccc(-n2c(C)nc3c(NC(C4CC4)C4CC4)nc(C)nc32)c(C)c1			0.014		10			37	
